For one series, the system named is Eragrostis curvula. The note with it: seeds treated with 0.05% colchicine, tetraploids; cited from earlier work.
For the next series, the system named is NT1 suspension cells. Description: Effects of colchicine on growth of NT1 suspension cells. The format is cell-based, Nicotiana tabacum. Conditions: 1 mM. An excerpt: (§1) BY2 suspension-cultured cells were obtained from Japan tobacco and maintained in LSBY2 medium in a 7 day cycle. Jimsonweed suspension and Pettite Havana tobacco suspensions were initiated from callus initiated at DAS and Xanthi suspensions were procured as a sample from Professor Jack Widholm from UIUC, IL. JT-NT1 suspension cells, obtained from Washington University that are maintained in NT1B medium in 7 day cycle were used only for the pectin degradation enzyme study to separate the cells into single cells. The cells were cultured in shake flasks at 25-28° C. in dark on orbital shakers at 150 rpm. […] The NT-1 cell line is widely used and readily available; though, any tobacco suspension cell line is consistent with the practice of the invention. […]
(§2) Cell expansion and separation were observed by light microscopy (with Nomarski and dark field optics). Spherical cells and single cells were counted by using a hemacytometer to determine the degree of cell expansion and separation, respectively. Cell numbers in aggregates were determined by treating with 5% (wt/vol) chromium trioxide for 16 hr and counting cells (Henshaw et. al, 1966). Cell viability was determined by staining cells (Yokoyama et. al, 1997) with fluorescein diacetate (FDA) and propidium iodide (PI) using a fluorescent microscope (Zeiss Photomicroscope). […]

The test system of another series is BY2 suspension cells. Description: Effects of colchicine on growth and cell separation of BY2 suspension cells. The format is cell-based, tobacco.
Excerpt: BY2 suspension-cultured cells were obtained from Japan tobacco and maintained in LSBY2 medium in a 7 day cycle. Jimsonweed suspension and Pettite Havana tobacco suspensions were initiated from callus initiated at DAS and Xanthi suspensions were procured as a sample from Professor Jack Widholm from UIUC, IL. JT-NT1 suspension cells, obtained from Washington University that are maintained in NT1B medium in 7 day cycle were used only for the pectin degradation enzyme study to separate the cells into single cells. The cells were cultured in shake flasks at 25-28° C. in dark on orbital shakers at 150 rpm. […] Stock concentrations of both the tubulin polymerization inhibitors used in this investigation were dissolved in DMSO to prepare a 0.5 M stock solution. The concentration tested for the pectinase and pectolyase enzymes were in the range of 0.0005% to 0.005%. The tobacco suspension cell lines NT-1 and BY-2, for example, are suitable for the practice of the present invention. BY-2 cells are commercially available and are available according to Nagata et al, for example (Nagata, T., Nemoto, Y., and Hasezawa, S. [1992], Tobacco BY-2 cell line as the “HeLa” cell in the cell biology of higher plants. Int. Rev. Cytol. 132: 1-30). NT-1 cells were originally developed from Nicotiana tabacum L. cv. bright yellow 2. The NT-1 cell line is widely used and readily available; though, any tobacco suspension cell line is consistent with the practice of the invention. It is worth noting that the origins of the NT-1 cell line are unclear. Moreover, the cell line appears variable and is prone to change in response to culture conditions. NT-1 cells suitable for use in the examples below are available from the American Type Culture Collection under accession number ATCC No. 74840. See also U.S. Pat. No. 6,140,075.
as §2, with “Photomicroscope). In order to determine the presence of the cell wall in this single cell cultures optical brightener was used. Calcafluor obtained from Sigma, which is a specific fluorescent dye for cellulose is used in this study, and the cellulose-Calcafluor complexing was observed by fluorescence microscopy (Zeiss Photomicroscope).” for “Photomicroscope).”

The next series has as its system PH suspension cells. Description: Recovery of Petite Havana suspension cells after DAS-PMTI-1 treatment. The format is cell-based, tobacco. Conditions: after 7 days at 0.5 mM; after 2 weeks.
Excerpt: as §1, §2

The test system of the next series is JTNT1 single cells. The experiment in a line: Cytological characterization of JTNT1 single cells (nucleus, cell wall). The format is cell-based, tobacco. On the procedure:
JTNT1 Tobacco single cell initiation and sample collection. JTNT1 Tobacco single cells were initiated in two different media, NT1B with 3% sucrose (NT1B-Suc) and NT1B with 3% glycerol (NT1B-Gly) in 3.5 day culture cycle. […] The flasks were closed with a foam stopper and cultured on a orbital shaker at 130 rpm in dark at 25-28° C. The cultures were sub cultured every 3.5 days up to a period of 14 days. Four samples (Suc/Gly grown cells and the control cultures in Suc/Gly media with 0.2% DMSO) of the cultures were harvested every 3.5 days by spinning the suspension at 3000 rpm for 5 minutes. The samples were immediately lyophilized to prevent any cell oxidation to minimize any deleterious effect on the samples introduced post harvest. Single cells were stained with Hoechst nuclear stain for an hour and observed under scopes for any nuclear anomaly up to two culture cycles.
Cell viability and Cell wall. Established JTNT1 single cells were used to stain with FUN1 (F-7030, Molecular Probes, Invitrogen Inc) cell stain which is used for viability test in yeast, and this contains two color fluorescent probes. The third one, Calcofluor White M2R which stains cell wall, was used to stain the cells. For JTNT1 single cells, […] of FUN1 stain is added and the culture was incubated at room temperature for 20 mins 1 mL fresh culture media was added to wash the excess stain and centrifuged at 3000 rpm; the supernantant was discarded. The cells were examined and imaged on Zeiss ApoTome microscope.
Nucleus. Single cells were stained with Hoechst nuclear stain for an hour and observed on Zeiss Apo Tome for any nuclear anomaly up to two culture cycles. Crystal violet stain was also used as a live nuclear stain for observing nuclear structure for ploidy characterization

Turning to `COc1cc2c(c(OC)c1OC)-c1ccc(OC)c(=O)cc1[C@@H](NC(C)=O)CC2` [Colchicine], the polymorphic percentage with Eragrostis curvula was 1.09%. The compound also registered a reduction in growth in the series with NT1 suspension cells of roughly 50%. Moreover, the single suspension cells entry in the series with BY2 suspension cells (1 mM, 7 days) was “high degree of single suspension cells”. For the same compound, the “amount of cells compared with control cultures” value in the series with BY2 suspension cells (1 mM, after 7 days) was “about equal amounts”. Further, in the series with BY2 suspension cells (7 days in 1 mM, then sub-cultured to colchicine-free medium), the “suspension cells seen as single intact cells” value is roughly 90%. Further, the “cell viability (FDA and PI)” value in the series with BY2 suspension cells (BY2-Variant, 1 mM, 7 d) is on record as “high viability”.

As for `CCOC(=O)COc1nn(-c2ccccc2)c(-c2ccccc2)c1Cl` [DAS-PMTI-1], in the series on PH suspension cells, the “recovery after subculture in the absence of the compound” value is on record as “recovered as single cells with a low frequency”. In addition, in the series with JTNT1 single cells (1 uM, 3.5 d cultures), the “nuclear organization of single cells” value is on record as “single nucleus”. Besides, the nuclear ploidy result in the series on JTNT1 single cells (14 days of continuous treatments) is listed as “low or no nuclear ploidy percentage”.
